Consider 7 compounds from US8158389B2, “Products and methods for in vivo secretion of monatin” (priority 2005, dated 2012).

Read-outs that look alike come from different tables or passages of the source. Marks after values point to notes of the source that are not given here.

The test system of assay [1] is C. glutamicum ATCC 13032 transformed with aspCProA pEKEX-2. Briefly: Monatin efflux with biotin and ampicillin treatments. Type of assay: cell-based, Corynebacterium glutamicum. As for the experimental part: C. glutamicum ATCC 13032 strains transformed with aspCProA pEKEX-2 were grown overnight in LB medium supplemented with 50 μg/mL kanamycin incubated at 30° C. and shaking at 250 rpm. […] Microbiol 151:342-347, (1989). […] The pH was adjusted to 7.0.
Additions of 1.0 g L-tryptophan and 5 g/L sodium pyruvate and ampicillin (either 0 or 10 μg/ml) were made 3 hours following induction.

The subject of assay [2] is C. glutamicum 13032::aspC/proA/pEKEX2-2. Briefly: Monatin excretion using ethambutol. In kind it is cell-based, Corynebacterium glutamicum. On the procedure: (§1) Microbiol 151:342-347, (1989). […] The pH was adjusted to 7.0.
Conditions for the treatments included 30° C. throughout the experiment and 250 rpm agitation. Ethambutol (10 mg/L) was added either prior to inoculation of shake flasks or at the first feeding time when tryptophan and pyruvate were added. […] Additions of 1 g L-tryptophan, 10 g/L sodium pyruvate, 0.04 mM pyridoxal-5′-phosphate (“PLP”), were made 3 hours following induction.

Assay [3] relates to E. coli MG1655::aspCproApProNde (control). Briefly: AcrAB k.o. validation: growth (OD 600 nm) with novobiocin / sodium decanoate, control strain. Type of assay: cell-based, Escherichia coli. On the procedure:
(§2) Single chloramphenicol-resistant colonies were purified by restreaking on appropriate selective media and single colonies were tested by PCR as previously described for the BW25113 knockout strains, to verify the presence of the emrB and acrAB knockouts. The effects of the emrB and acrAB knockouts on the EmrAB and AcrAB transporter systems respectively were determined by assessing the phenotype of the transport mutants using appropriate antibiotics and comparison to wild type control microorganisms as shown in Table 3.1 and Table 3.2 below.

Assay [4] deals with E. coli MG1655 ΔAcrAB 6-16::aspCproAproNde. The assay is described as follows: AcrAB k.o. validation: growth (OD 600 nm) with novobiocin / sodium decanoate, knockout strain. In kind it is cell-based, Escherichia coli. On the procedure:
as §2

Assay [5] concerns C. glutamicum 13032 transformed with aspCProA pEKEX-2. The assay is described as follows: Monatin efflux with increased temperature and sodium pyruvate. Type of assay: cell-based, Corynebacterium glutamicum. On the procedure:
as §1
Conditions for treatments included 30° or 35° C. throughout the experiment and 250 rpm agitation. At an OD600 nm, between 0.45-0.51, induction of the monatin operon genes was initiated. […] Additions of 1.0 g L-tryptophan, 10 or 15 g/L sodium pyruvate, 0.04 mM pyridoxal-5′-phosphate (“PLP”), were made 3 hours and also at 24 hours following induction. A total of 20 or 30 g/L sodium pyruvate was added to each flask by adding 10 or 15 g/l at each of the two feeding times.

The subject of assay [6] is C. glutamicum ATCC 13032 transformed with aspCProApEKEX-2. On the procedure: C. glutamicum ATCC 13032 strains transformed with aspCProApEKEX-2 were grown overnight in LB medium supplemented with 25 μg/mL kanamycin incubated at 37° C. and shaking at 250 rpm. For the experimental treatment flasks, 100 mL of Krämer's A medium was used in each shake flask. Hoischen, C. and Krämer, R., “Evidence for an efflux carrier system involved in the secretion of glutamate by Corynebacterium glutamicum,” Arch. Microbiol 151:342-347, (1989). Krämer's A medium contained (per liter): 5 g (NH4)2SO4, 5 g urea, 2 g KH2PO4, 1.53 g K2HPO4, 0.249 g MgSO4.7H2O, 50 g glucose, 0.01 g FeSO4.7H2O, 0.01 g MnSO4.H2O, 0.01 g CaCl2.2H2O, 0.03 mg ZnSO4.7H2O, 0.1 mg H3BO3, 0.07 mg […], 0.01 mg NiCl2.2H2O, 0.03 mg CuCl2.2H2O, 0.1 mg as Mo^+6 from (NH4)6Mo7O24-4H2O and 1 μg biotin. The pH was adjusted to 7.0.
For treatments, 4.2 v/v % of inoculum was added to 100 mL medium volume in 500 mL baffled shake flasks. Conditions for the treatments included 37° C. throughout the experiment and 250 rpm agitation. Sodium salicylate (0, 1 mM or 2 mM) was added 1 hour following inoculation. At 0.45-0.6 OD600 nm induction of the monatin operon genes was initiated. IPTG at 0.5 mM was used for induction, and additions at the time of induction included 0.5 mM pyridoxine hydrochloride and 0.04 mM pyridoxal-5′-phosphate (“PLP”). Additions of 1 g L-tryptophan, 5 g/L sodium pyruvate and 10 μg/mL ampicillin were made 3 hours following induction. Samples for monatin and dry cell weight determination were taken at 23.5 and 48 hours.
Monatin analysis was conducted as described in Example 13.

Another assay relates to E. coli BL21DE3 AP pET32. Briefly: Monatin excretion with Tween 20, E. coli BL21DE3 with or without Arabidopsis auxin transporter gene. In kind it is cell-based, Escherichia coli. The note with it: 0.2% Tween 20. On the procedure: For inoculum preparation, the E. coli strains were grown overnight at 37° C. and 250 rpm in Luria-Bertani (“LB”) medium with 100 μg/mL ampicillin and 50 μg/mL kanamycin. For the experimental treatments, Trp-1+glucose medium, a minimal medium that has been used for increased production of tryptophan in E. coli cells (Zeman, et al. Folia Microbiol. 35:200-204, (1990)), was prepared as follows. To 800 mL nanopure water the following reagents were added: 2 g (NH4)2SO4 and 13.6 g KH2PO4. The pH was adjusted to 7.0, the volume was increased to 948 mL, and the medium was autoclaved. Following sterilization, 0.2 g MgSO4.7H2O, 0.01 g CaCl2.2H2O, and 0.5 mg FeSO4.7H2O were added to the medium in a 1.8 mL volume followed by addition of 0.2 mL of Neidhardt's micronutrient solution. Neidhardt F. C., et al., “Culture medium for Enterobacteria,” J. Bacteriol. 119:736-746, (1974). Neidhardt's medium includes (per liter): 0.18 g (NH4)6(MO7)24.4H2O, 1.24 g H3BO3, 0.36 g CoCl2.6H2O, 0.12 g CuSO4 (anhydrous), 0.8 g MnCl2.4H2O, and 0.14 g ZnSO4.7H2O. A 50% glucose solution was prepared separately and sterile-filtered. Forty mL of glucose solution and 10 mL of 1 M 3-Morpholinopropanesulfonic acid (“MOPS”) buffer were added to the base medium (950 mL) for a 1 L final volume.
Conditions for the treatments included 250 rpm agitation throughout and 37° C. up to induction, then, 30° C. following induction. At 0.54-0.62 OD600 nm, induction of the plasmid genes was initiated. At induction, 1.0 mM IPTG, 0.5% L-arabinose, 0.5 mM pyridoxine hydrochloride, and 0.2 mLs of Balch's vitamins were added. Additions of 10 g/L L-tryptophan, 10 g/L sodium pyruvate, 0.04 mM pyridoxal-5′-phosphate (“PLP”) and 0 or 0.2% Tween® 20 (polyoxyethylene 20-sorbitan monolaurate) were made 3 hours following induction.

Where [7] appears, read: Ampicillin 10 μg/mL, Biotin 1 μg/L.
The mark [8] stands for this setting: Ampicillin 10 μg/mL, Biotin 200 μg/L.
The mark [9] stands for this setting: Biotin 200 μg/L, Ampicillin 0 μg/mL.
Setting [10] is: ethambutol 10 mg/L with 0.2% Tween 20 and 10 μg/ml ampicillin, n = 2.
[11] abbreviates: ethambutol 10 mg/L, another 10 g/L sodium pyruvate at 24 hours, n = 2.
The mark [12] stands for this setting: 40 or 80 ppm novobiocin, no sodium decanoate.
Setting [13] is: novobiocin 40 ppm, sodium decanoate 0 mM.
Setting [14] is: novobiocin 40 ppm, sodium decanoate 2.5 mM.
The mark [15] stands for this setting: novobiocin 80 ppm, sodium decanoate 0 mM.
Setting [16] is: novobiocin 80 ppm, sodium decanoate 2.5 mM.
Setting [17] is: Arabidopsis auxin transporter gene on pProNde del, n = 3.
[18] abbreviates: no auxin transporter gene on pProNde del, n = 3.

Turning to `CC1(C)S[C@@H]2[C@H](NC(=O)[C@H](N)c3ccccc3)C(=O)N2[C@H]1C(=O)O` [Ampicillin, ampicillin], in assay [1] (setting [7]), the “Monatin/dry cell weight, 24 hours” value is reported as 16.2 mg/g and the “Monatin/dry cell weight, 48 hours” value was found to be 13.5 mg/g. In assay [1] (setting [8]), the “Monatin/dry cell weight, 24 hours” value turned out to be 12.1 mg/g and the “Monatin/dry cell weight, 48 hours” value came to 9.3 mg/g.

Regarding `O=C(O)CCCC[C@@H]1SC[C@@H]2NC(=O)N[C@@H]21` [Biotin, biotin], the “Monatin/dry cell weight, 48 hours” value was 4.5 mg/g in assay [1] (Biotin 1 μg/L, Ampicillin 0 μg/mL) and 1.7 mg/g in assay [1] (setting [9]). Further, the “Monatin/dry cell weight, 24 hours” value in assay [1] (Biotin 1 μg/L, Ampicillin 0 μg/mL, n = 1) is on record as 1.9* mg/g; in assay [1] (setting [9]), 0.9 mg/g.

In the case of `CC[C@@H](CO)NCCN[C@@H](CC)CO` [ethambutol], the “greater monatin excreted per dry cell weight” value in assay [2] (Tween/ampicillin treatment with 10 mg/L ethambutol vs same treatment without ethambutol, 48 hours) came to 12 fold. In assay [2] (setting [10]), the “Monatin/dry cell weight, 24 hours” value is 6.94 mg/g; the “Monatin/dry cell weight, 30 hours” value was determined as 8.80 mg/g; the “Monatin/dry cell weight, 48 hours” value came out at 9.14 mg/g. In assay [2] (setting [11]), the “Monatin/dry cell weight, 24 hours” value amounted to 1.04 mg/g; the “Monatin/dry cell weight, 31 hours” value is on record as 1.53 mg/g; the “Monatin/dry cell weight, 48 hours” value was 2.19 mg/g. Besides, in assay [2] (ethambutol 10 mg/L, n = 2), the “Monatin/dry cell weight, 24 hours” value is 1.16 mg/g; the “Monatin/dry cell weight, 31 hours” value was 1.15 mg/g; the “Monatin/dry cell weight, 48 hours” value worked out at 1.06 mg/g.

Turning to `CO[C@@H]1[C@@H](OC(N)=O)[C@@H](O)[C@H](Oc2ccc3c(O)c(NC(=O)c4ccc(O)c(CC=C(C)C)c4)c(=O)oc3c2C)OC1(C)C` [novobiocin], the growth entry in assay [3] (0, 40 or 80 ppm novobiocin, in the presence of sodium decanoate) was “grew to similar optical densities”; in assay [3] (setting [12]), “only slight inhibition of growth”; in assay [4] (setting [12]), “growth is completely inhibited”. Further, the “OD 600 nm at 19 hours” value in assay [3] (setting [13]) was determined as 1.407; in assay [3] (setting [14]), 1.395; in assay [3] (setting [15]), 0.793; in assay [3] (setting [16]) it was 1.374; in assay [4] (setting [13]) it was 0.007; in assay [4] (setting [14]) it was 0.008. Also, the “OD 600 nm at 19 hours” value was determined as 0.006 in assay [4] (setting [15]) and 0.008 in assay [4] (setting [16]).

In the case of `CC(=O)C(=O)[O-].[Na+]` [pyruvate, sodium pyruvate], the “Monatin/dry cell weight, 24 hours” value in assay [5] (30° C., 20 g/L pyruvate) worked out at 0.2 mg/g; in assay [5] (30° C., 30 g/L pyruvate) it was 0.3 mg/g; in assay [5] (35° C., 20 g/L pyruvate), 5.4 mg/g; in assay [5] (35° C., 30 g/L pyruvate), 5.8 mg/g. Moreover, the “Monatin/dry cell weight, 31 hours” value is 2.1 mg/g in assay [5] (30° C., 20 g/L pyruvate); 1.8 mg/g in assay [5] (30° C., 30 g/L pyruvate); 14.7 mg/g in assay [5] (35° C., 20 g/L pyruvate); 18.1 mg/g in assay [5] (35° C., 30 g/L pyruvate). Besides, the “Monatin/dry cell weight, 48 hours” value in assay [5] (30° C., 20 g/L pyruvate) amounted to 2.7 mg/g; in assay [5] (30° C., 30 g/L pyruvate), 4.3 mg/g; in assay [5] (35° C., 20 g/L pyruvate), 23.5 mg/g; in assay [5] (35° C., 30 g/L pyruvate), 29.4 mg/g. Also, the “Monatin/dry cell weight, 54 hours” value in assay [5] (30° C., 20 g/L pyruvate) amounted to 2.7 mg/g; in assay [5] (30° C., 30 g/L pyruvate), 4.7 mg/g; in assay [5] (35° C., 20 g/L pyruvate), 23.8 mg/g; in assay [5] (35° C., 30 g/L pyruvate), 35.2 mg/g.

In the case of `O=C([O-])c1ccccc1O.[Na+]` [sodium salicylate, Sodium salicylate], the “increase in monatin transported” value in assay [6] (1 mM or 2 mM sodium salicylate, 23.5 hours) is listed as “seventy percent increase”. Also, the “increase in monatin efflux” value in assay [6] (1 mM or 2 mM sodium salicylate, 48 hours) was “seven percent increase”. In assay [6] (1 mM sodium salicylate), the “Monatin/dcw, 23.5 hours” value is listed as 7.41 mg/g and the “Monatin/dcw, 48 hours” value came to 9.94 mg/g. In assay [6] (2 mM sodium salicylate), the “Monatin/dcw, 23.5 hours” value is 7.54 mg/g and the “Monatin/dcw, 48 hours” value was found to be 9.82 mg/g.

Take “polyoxyethylene 20-sorbitan monolaurate [Tween ® 20]”: in the assay on E. coli BL21DE3 AP pET32 (Arabidopsis auxin transporter gene on pProNde del, n = 2), the “Monatin/dry cell wt., 30 hours” value is given as 26.7* mg/g. Besides, in the assay on E. coli BL21DE3 AP pET32 (setting [17]), the “Monatin/dry cell wt., 24 hours” value stood at 29.4 mg/g and the “Monatin/dry cell wt., 48 hours” value is recorded as 19.7 mg/g. In addition, in the assay on E. coli BL21DE3 AP pET32 (setting [18]), the “Monatin/dry cell wt., 24 hours” value is 2.2 mg/g; the “Monatin/dry cell wt., 30 hours” value amounted to 2.5 mg/g; the “Monatin/dry cell wt., 48 hours” value came to 2.2 mg/g.
